Data: patent publication US7132513B2, “Bifunctional chelating agent” (European Community, priority 2000, dated 2006)

Tests used:
[1] = complexation properties with ^225Ac; format: physicochemical; details: compared with non-functionalised chelating agents EDTA, DTPA, DOTA, PEPA, HEHA, EDTMP
Procedure: (§1) Different non-functionalised chelating agents (commercially available or readily synthesised in the laboratory) bearing aminocarboxylate groups (EDTA, DTPA, DOTA, PEPA, and HEHA) or aminophosphonate groups (EDTMP) were tested for their complexation properties with ^225Ac and ^213Bi. […] Polyaza polycarboxylic macrocycles are known to form thermodynamically stable complexes with large metal ions such as actinides and lanthanides.

[2] = complexation properties with ^213Bi; format: physicochemical; details: non-functionalised chelating agents tested
Procedure: as §1

Structure (SMILES): O=C(O)CN1CCN(CC(=O)O)CCN(CC(=O)O)CCN(CC(=O)O)CCN(CC(=O)O)CCN(CC(=O)O)CC1 [HEHA, 1,4,7,10,13,16-hexacarboxylmethyl-1,4,7,10,13,16-hexaazacyclooctadecane]
- ^225Ac complexation [1]: best candidate
- chelation of ^213Bi [2]: good chelating agent
